In brackets after ≈: the same amount, converted by molar mass.
Key:
E. coli = test: Radial diffusion assay against E. coli; type: cell-based, Escherichia coli
Procedure: A radial diffusion assay (RDA) was performed as follows. Briefly, microorganisms in the mid-log phase were centrifuged at 12,000×g for 10 min, washed with PBS, and dispersed (10^5 cfu/ml) in agar consisting of 1% (w/v) agarose (Sigma) and 3% (w/v) culture medium in PBS at 42° C. Then, the agar was poured into Petri dishes and solidified. Wells (diameter 3 mm and volume 30 μl) were created by poking a pipette tip into the semi-solidified agar. Propionic acid was serially diluted in PBS to concentrations ranging from 5 to 2,000 mM, and 30 μl aliquots were added to the wells; PBS served as the control. After 3 h of incubation, a 10 ml overlay gel composed of 3% culture medium and 1% agarose was poured onto the plates, where after the plates were incubated overnight and examined for zones of growth inhibition.

P. acnes = test: MBC test of propionic acid against P. acnes; type: cell-based, Propionibacterium acnes
Procedure: (§1) To determine the minimal bactericidal concentration (MBC) and minimal fungicidal concentration (MFC) of propionic acid, microorganisms (10^6 colony forming units (cfu)/ml) were incubated overnight in media with propionic acid (1.25-2,000 mM) in a 96-well microplate (100 μl per well). The control only received PBS. After incubation, the microorganisms were diluted 1:10-1:10^6 into PBS. The dilutions (5 μl) were spotted onto agar media to count cfu; MBC/MFC were determined at 99.9% killing level. To determine the effect of pH on growth of S. aureus USA300, the bacterium was incubated in TSB at pH 5.8 and 6.8, and TSB with 25 mM propionic acid at pH 5.8 and 6.8 (buffered with 4-(2-hydroxyethyl)-1-piperazineethanesulfonic acid (HEPES)) in a 96-well microplate overnight before spotting onto agar plates.

[1] = Skin wound healing without USA300 inoculation; type: in vivo, ICR mice; settings: topical 100 mM propionic acid vs PBS (pH 7.1) and PBS/pH (pH 3.5), 8-day period
Procedure: ICR mice (2-3-month-old female) were anesthetized by isoflurane. In each experiment, there were five mice per group. A wound 5 mm in length was made on the dorsal skin after shaving with electrical clippers. Once the skin wound was created, 5 μl of propionic acid (100 mM), PBS (pH 7.1) or PBS (pH 3.5) was applied topically to the wounded areas. The wounds were left uncovered throughout the experimental period. For bacterial infection, USA300 (2×10^6 CFU in PBS) was applied topically to the wounded areas 10 min after application of propionic acid or PBS. For the measurement of the extent of wound closure, a transparent parafilm was put on the top of the wounded skin. The wound area was marked on the parafilm by drawing an area which covered the whole skin wound. The lesion size was measured daily for 8 days was calculated using the ImageJ software [National Institutes of Health (NIH), Bethesda, Md., USA] and expressed as mm^2. Student's t-test was used to determine the significance of the differences between groups of the PBS (pH 7.1)- and propionic acid-treated mice as well as the PBS (pH 7.1)- and PBS (pH 3.5)-treated mice. Data represent the mean±SD from three independent experiments. All experiments using mice were conducted in a Biosafety Level 2 (BSL-2) facility and with accordance to institutional guidelines for animal experiments.

USA300 [2] = test: MBC assay against USA300; type: cell-based, Staphylococcus aureus
Procedure: To determine the MBC of propionic acid, USA300 (10^6 CFU/ml) were incubated with propionic acid at various concentrations (1.25-100 mM in PBS) as indicated in each individual experiment in media on a 96-well microplate (100 μl per well) overnight. The control received only PBS. After incubation, the bacteria were diluted 1:10-1:10^6 with PBS. […] To determine the pH effect on the bacterial growth, USA300 in TSB was incubated with 2.5 mM propionic acid on a 96-well microplate (100 μl per well) overnight before spotting on an agar plate.
To determine the minimal bactericidal concentration (MBC) and minimal fungicidal concentration (MFC) of propionic acid, microorganisms (10^6 colony forming units (cfu)/ml) were incubated overnight in media with propionic acid (1.25-2,000 mM) in a 96-well microplate (100 μl per well). The control only received PBS. After incubation, the microorganisms were diluted 1:10-1:10^6 into PBS. […]

USA300 [3] = test: Measurement of intracellular pH of USA300 (cFSE probe); type: cell-based, Staphylococcus aureus; settings: 25 mM propionic acid, vs PBS
Procedure: Measurement of intracellular pH. […] A drop in relative fluorescence indicated the decrease in intracellular pH. […] The fluorescence of the bacteria-free supernatant was measured and deducted from values for the treated suspensions.
Fluorescence was measured for 5 min every min using an excitation wavelength of 490 nm and an emission wavelength of 520 nm. A reduction in relative fluorescence reflected a decrease in intracellular pH. Fluorescence of bacteria-free supernatant obtained by centrifugation at 5,000×g for 5 min after the 5-min assay was measured to correct for background fluorescence. Calibration curves were obtained by incubation of untreated, cFSE-loaded bacteria in buffer containing 50 mM glycine, 50 mM citric acid, 50 mM Na2HPO4.2H2O and 50 mM KCl adjusted to various pH values from 4-10. 1 μM valinomycin and nigericin (Sigma) were added to equilibrate the intracellular and extracellular pH.

C. albicans = test: Minimal fungicidal concentration test against C. albicans; type: cell-based, Candida albicans; settings: MBC/MFC test
Procedure: as §1

CCC(=O)O [propionic acid]
minimum effective concentration for growth inhibition zones, E. coli (E. coli): 10 mM | concentration at which growth inhibition of P. acnes was detectable (P. acnes; MBC tests, 5 to 2,000 mM tested): greater than 1000 mM | growth of P. acnes (P. acnes; propionic acid 25 mM): did not affect the growth | growth of P. acnes (P. acnes; propionic acid between 5 and 500 mM, MBC tests): did not affect the growth | changes in lesion sizes of wounds without USA300 inoculation [1]: not statistically different | antimicrobial activity against USA300 (USA300 [2]; 25 mM): excellent antimicrobial activity | bacterial numbers of USA300 (USA300 [2]; 25 mM propionic acid (pH 5.8), 24 h, USA300 10^6 CFU): 4.9±0.2×10^4 CFU/ml | antimicrobial activity against USA300 after buffering (USA300 [2]; 25 mM propionic acid (pH 6.8) buffered with ammonium hydroxide): remained | concentration that completely killed USA300 (USA300 [2]; MBC test): greater than or equal to 100 mM | concentration that effectively suppressed the growth of USA300 (USA300 [2]; MBC test, more than 1 log10 reduction): greater than 25 mM | concentration that completely killed USA300 (USA300 [2]; MBC test, listed as Propionic acid): greater than 100 mM | MBC (USA300 [2]; Staphylococcus aureus, in TSB, USA300 10^6 CFU/ml, overnight): 25 mM (≈ 1850 µg/mL) | concentration for a complete growth inhibition of USA300 (USA300 [2]; dissolved in 4% dimethyl sufoxide, overnight): 100 Mm | MBC (>1 log10 inhibition) against USA300 (USA300 [2]; dissolved in 4% dimethyl sufoxide, overnight, 0-100 mM): 25 mM | intracellular pH of USA300 (USA300 [3]): considerably lowered | concentration that completely killed C. albicans (C. albicans): greater than or equal to 25 mM | concentration that effectively suppressed the growth of C. albicans (C. albicans): greater than 10 mM

From patent US11590092B2, “Skin probiotic” (The Regents of the University of California, priority 2014, dated 2023)
